Paper PMC3483018 (Journal of Medicinal Chemistry, 2012)
Where two headings read alike, the source gives them in different places.

Tests used:
hERG = hERG (Homo sapiens, UniProt Q12809); experiment: in vitro
[1] = system: SW620 human colon cancer cell; details: read-out: SW620 GI50; cited from earlier work
pKa measurement = format: physicochemical
[2] = format: in vitro ADME; details: mouse liver microsomes, 10 μM
[3] = format: in vitro ADME; details: human liver microsomes, 10 μM
[4] = system: Stat5 phosphorylation at Y694; experiment: PK/PD study, tumor biomarker; format: in vivo, mouse; details: 50 and 100 mg/kg po b.i.d. 4 days, 2 h after the final dose
In vivo rat PK = details: female, Sprague-Dawley, plasma, iv, 5 mg/kg
Caco-2 assay = format: in vitro ADME
[5] = system: histone H-3 phosphorylation at S10; experiment: PK/PD study, tumor biomarker; format: in vivo, mouse; details: 50 and 100 mg/kg po b.i.d. 4 days, 2 h after the final dose
[6] = system: MV4–11 human FLT3-ITD positive AML tumor xenografts; details: for days on which individual mice were culled (tumor volume increased by over 500%): control culled day 18

Sequence of hERG (Q12809 whole entry): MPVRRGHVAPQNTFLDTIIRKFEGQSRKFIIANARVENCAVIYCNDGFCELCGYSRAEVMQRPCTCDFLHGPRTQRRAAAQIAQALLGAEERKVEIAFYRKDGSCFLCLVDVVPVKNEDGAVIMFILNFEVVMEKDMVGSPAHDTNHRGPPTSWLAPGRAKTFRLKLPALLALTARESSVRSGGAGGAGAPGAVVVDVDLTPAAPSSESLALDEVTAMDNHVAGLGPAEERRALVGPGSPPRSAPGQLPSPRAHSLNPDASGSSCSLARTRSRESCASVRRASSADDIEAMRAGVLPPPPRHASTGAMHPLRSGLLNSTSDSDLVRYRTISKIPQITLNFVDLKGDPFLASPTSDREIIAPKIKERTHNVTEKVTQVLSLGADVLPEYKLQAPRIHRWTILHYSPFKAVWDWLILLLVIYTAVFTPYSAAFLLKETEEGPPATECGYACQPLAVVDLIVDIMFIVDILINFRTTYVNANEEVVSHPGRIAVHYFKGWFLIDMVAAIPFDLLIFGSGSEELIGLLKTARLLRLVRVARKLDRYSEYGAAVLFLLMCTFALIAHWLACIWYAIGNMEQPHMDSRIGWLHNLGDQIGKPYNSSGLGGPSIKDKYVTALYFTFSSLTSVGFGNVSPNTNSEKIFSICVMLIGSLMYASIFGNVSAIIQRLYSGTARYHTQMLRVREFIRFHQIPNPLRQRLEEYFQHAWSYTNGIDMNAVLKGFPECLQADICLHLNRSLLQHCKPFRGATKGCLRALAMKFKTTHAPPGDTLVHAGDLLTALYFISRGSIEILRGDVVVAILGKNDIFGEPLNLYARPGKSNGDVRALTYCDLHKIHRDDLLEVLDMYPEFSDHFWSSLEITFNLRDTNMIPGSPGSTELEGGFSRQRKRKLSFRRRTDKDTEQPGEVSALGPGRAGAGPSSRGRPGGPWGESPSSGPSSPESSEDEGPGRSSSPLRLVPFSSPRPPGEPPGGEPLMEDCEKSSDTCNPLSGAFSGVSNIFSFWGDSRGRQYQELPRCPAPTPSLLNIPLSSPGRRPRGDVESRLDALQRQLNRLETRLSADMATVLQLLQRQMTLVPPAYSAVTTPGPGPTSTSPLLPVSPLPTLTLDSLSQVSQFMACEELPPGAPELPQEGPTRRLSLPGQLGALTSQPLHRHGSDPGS

Cc1cc(CN2CCN(c3c(Br)cnc4nc(-c5cncn5C)[nH]c34)CC2)no1 [Compound 21a, 3-((4-(6-Bromo-2-(1-methyl-1H-imidazol-5-yl)-3H-imidazo[4,5-b]pyridin-7-yl)piperazin-1-yl)methyl)-5-methylisoxazole]
inhibition at 10 µM (hERG): 94%

Cc1cc(CN2CCN(c3c(Br)cnc4nc(-c5ccc(N6CCN(C)CC6)cc5)[nH]c34)CC2)no1 [Compound 6]
GI50 [1]: 300 nM

COc1ccc(-c2nc3c(N4CCN(Cc5cc(C)on5)CC4)c(Br)cnc3[nH]2)cc1 [6-bromo-2-(4-methoxyphenyl)-7-[4-(5-methyl-isoxazol-3-ylmethyl)-piperazin-1-yl]-3H-imidazo[4,5-b]pyridine]
pKa (pKa measurement; acidic pKa of the imidazopyridine N3 proton): 9.51
pKa (pKa measurement; pKa of the piperazine nitrogen bearing the 5-methylisoxazol-3-yl substituent): 5.39

Cc1cc(CN2CCN(c3c(Cl)cnc4nc(-c5cnn(C)c5)[nH]c34)CC2)no1 [Compound 21i, 3-((4-(6-Chloro-2-(1-methyl-1H-pyrazol-4-yl)-3H-imidazo[4,5-b]pyridin-7-yl)piperazin-1-yl)methyl)-5-methylisoxazole]
MLM: Percentage of parent compound metabolized after a 30 min incubation [2]: 20%
inhibition at 10 µM (hERG): 67%
HLM: Percentage of parent compound metabolized after a 30 min incubation [3]: 10%

Cc1nn(C)cc1-c1nc2c(N3CCN(Cc4ccc(Cl)cc4)CC3)c(Cl)cnc2[nH]1 [Compound 27e, 6-Chloro-7-(4-(4-chlorobenzyl)piperazin-1-yl)-2-(1,3-dimethyl-1H-pyrazol-4-yl)-3H-imidazo[4,5-b]pyridine]
inhibition of Stat5 phosphorylation in tumor [4]: clear inhibition
Vd (In vivo rat PK): 0.369 L
Caco-2 efflux (Caco-2 assay): no efflux
inhibition of histone H-3 phosphorylation in tumor [5]: clear inhibition
days on which individual mice were culled (tumor volume increased by over 500%) ([6]; 50 mg/kg): days 28 and 31
tumors when therapy discontinued ([6]; 100 mg/kg po b.i.d., after 11 days): undetectable
days on which individual mice were culled (tumor volume increased by over 500%) ([6]; 100 mg/kg): days 46 and 56
toxicity as defined by body weight loss and general condition ([6]; 50 and 100 mg/kg po): no observed toxicity
